For 21 compounds, IC50 and inhibition results are on record in ChEMBL document CHEMBL1156313, “Structure-activity relationship of novel DAPK inhibitors identified by structure-based virtual screening” (Bioorg Med Chem, 2010).

Assay [1] addresses T1, Death-associated protein kinase 3 (Homo sapiens, UniProt O43293). The experiment in a line: Inhibition of human recombinant DAPK3.
Target sequence in this assay (O43293 whole entry): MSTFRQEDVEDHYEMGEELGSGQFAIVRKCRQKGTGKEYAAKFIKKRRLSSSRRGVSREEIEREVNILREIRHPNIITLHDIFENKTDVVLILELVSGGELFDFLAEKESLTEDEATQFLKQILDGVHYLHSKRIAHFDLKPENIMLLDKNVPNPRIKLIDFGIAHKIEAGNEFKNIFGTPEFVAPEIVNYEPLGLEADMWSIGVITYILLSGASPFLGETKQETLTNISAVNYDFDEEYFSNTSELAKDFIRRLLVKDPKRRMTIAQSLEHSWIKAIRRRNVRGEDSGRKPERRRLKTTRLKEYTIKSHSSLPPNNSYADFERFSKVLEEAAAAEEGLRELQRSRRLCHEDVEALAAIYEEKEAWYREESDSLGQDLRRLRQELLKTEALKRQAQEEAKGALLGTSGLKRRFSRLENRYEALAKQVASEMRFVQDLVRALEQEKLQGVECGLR
The target of assay [2] is T1, Death-associated protein kinase 3. The experiment in a line: Inhibition of human recombinant DAPK3 at 1 uM.
Target sequence in this assay (O43293 whole entry, looked up): as the sequence (O43293 whole entry) above
The target is the same in assay [3]. Kind of assay: Inhibition of human recombinant DAPK3 at 10 uM.
Target sequence in this assay (O43293 whole entry, looked up): as the sequence (O43293 whole entry) above

By IC50 is commonly meant the midpoint of a concentration-inhibition curve. As a reminder, the inhibition is the percentage by which the read-out fell short of the control. As for `O=C1OC(c2cccc(Br)c2)=N/C1=C\c1cccnc1`, the IC50 in assay [1] is 148 nM. In addition, the inhibition in assay [2] and in assay [3] was 100% each time.

Regarding `O=C1OC(C23CC4CC(CC(C4)C2)C3)=N/C1=C\c1cccnc1`, the inhibition in assay [3] was 45%.

With `O=C1OC(c2cccc(Cl)c2)=N/C1=C\c1cccnc1`, in assay [1], the IC50 was found to be 360 nM. The inhibition was 85% in assay [2] and 97% in assay [3].

On to `O=C1OC(c2ccc([N+](=O)[O-])cc2)=N/C1=C\c1cccnc1`, for which, in assay [1], the IC50 stood at 291 nM. For the same compound, the inhibition in assay [2] turned out to be 90%; in assay [3] it was 94%.

Consider `O=C1OC(c2cccc(Br)c2)=N/C1=C\c1ccncc1`, for which the inhibition came out at 1% in assay [2] and 0% in assay [3].

Consider `O=C1OC(c2cccc([N+](=O)[O-])c2)=N/C1=C\c1ccncc1`, for which the inhibition in assay [2] and in assay [3] was 0% in each case.

For the compound `O=C1OC(c2ccc(Cl)cc2)=C/C1=C\c1cccnc1`, the inhibition in assay [3] was found to be 3%.

Consider `O=C1OC(c2ccc(Cl)c([N+](=O)[O-])c2)=N/C1=C\c1cccnc1`, for which the IC50 in assay [1] came to 278 nM. The inhibition in assay [2] and in assay [3] was 100% each time.

As for `O=C1OC(c2ccccc2)=N/C1=C\c1ccncc1`, the results for the inhibition in assay [2] and in assay [3] were 0% and 1%, respectively.

Turning to `COc1cccc(C2=N/C(=C\c3cccnc3)C(=O)O2)c1`, in assay [1], the IC50 worked out at 395 nM. Further, the results for the inhibition in assay [2] and in assay [3] were 99% and 100%, respectively.

On to `COc1ccc(C2=N/C(=C\c3cccnc3)C(=O)O2)cc1Br`, for which the inhibition in assay [2] and in assay [3] was 32% each time.

For the compound `O=C1N=C(N2CCCCC2)S/C1=C\c1cccnc1`, in assay [3], the inhibition turned out to be 29%.

Consider `COc1ccc(C2=N/C(=C\c3cccnc3)C(=O)O2)c(Br)c1`, for which the IC50 in assay [1] turned out to be 157 nM. Also, the inhibition in assay [2] turned out to be 100%; in assay [3], 92%.

With `O=C1OC(c2ccc(Cl)cc2Cl)=N/C1=C\c1cccnc1`, the inhibition in assay [2] turned out to be 42%; in assay [3] it was 78%.

`O=C1OC(c2ccc([N+](=O)[O-])cc2)=N/C1=C\c1ccncc1`: the inhibition in assay [2] turned out to be 0%; in assay [3] it was 2%.

Take `O=C1OC(c2cc(I)ccc2Cl)=N/C1=C\c1ccncc1`: in assay [1], the IC50 stood at 227 nM. Moreover, the inhibition in assay [2] was 83%; in assay [3], 97%.

Turning to `COc1cc(C2=N/C(=C\c3cccnc3)C(=O)O2)cc(OC)c1OC`, the inhibition turned out to be 26% in assay [2] and 33% in assay [3].

As for `O=C1OC(c2ccccc2)=N/C1=C\c1ccccc1`, the inhibition in assay [3] came out at 4%.

`Cc1ccc(C2=N/C(=C\c3cccnc3)C(=O)O2)cc1[N+](=O)[O-]`: in assay [1], the 50% inhibitory concentration (IC50) was 534 nM. The inhibition in assay [2] amounted to 72%; in assay [3], 90%.

For `O=C1OC(c2ccc(Cl)c([N+](=O)[O-])c2)=N/C1=C\c1ccncc1`, the inhibition in assay [2] was 0%; in assay [3] it was 10%.

With `COc1ccc(C2=N/C(=C\c3cccnc3)C(=O)O2)cc1OC`, the inhibition in assay [2] is 14%; in assay [3], 36%.
